Values of other authors in US6410548B1, “Spiropiperidine derivatives as melanocortin receptor agonists” (Merck & Co., Inc., priority 1998, dated 2002).

Legend:
rodents = settings: injected ICV; feeding models NPY, ob/ob, agouti, fasted
normal male volunteers = settings: intramuscular, 0.005-0.03 mg/kg, three normal male volunteers
[1] = system: non-organic impotent patients; settings: intramuscular, 0.025 mg/kg and 0.1 mg/kg, 10 non-organic impotent patients

In the case of SHU-9119, the “effect on food intake” value (rodents) is given as “reverses this effect and can induce hyperphagia”.
In the case of melanotan-II [MT-II], the “period of intermittent non-painful penile erections after dosing” value (normal male volunteers) is listed as 1 to 5 h, the “onset of transient erections” value [1] is listed as 50 to 180 min and the “responders (transient erections)” value [1] is listed as 8. For the same substance, the “effect on food intake” value (rodents) was “reduces food intake”.
